What was measured:
[1] = target: T1, H1(h) (Homo sapiens, UniProt P35367); test: Radioligand binding, H1 (Eurofins CEREP); details: 1.0 × 10^−05 M; antagonist radioligand; read-out: percent inhibition of the binding of a radioactively labeled ligand
T1 construct: Eurofins CEREP
Description: Table A discloses mazindol and Met tested at […] and the compound binding calculated as a percent inhibition of the binding of a radioactively labeled ligand specific for each target (Eurofins CEREP, France).
An inhibition or stimulation of more than 50% is considered a significant effect of the test compounds. Fifty percent is a common cut-off for further investigation (i.e. determination of IC50 or EC50 values from concentration-response curves). Tables B and C display the binding profiles for Mazindol and Met.
The results are expressed as a percent of control specific binding obtained in the presence of the test compounds:
[formula] and as a percent inhibition of control specific binding obtained in the presence of the test compounds: […]

[2] = test system: Sprague-Dawley rats; test: Naloxone precipitated withdrawal syndrome of heroin; type: in vivo; details: for Abdominal constrictions score (Abd C) / Abnormal posture score (Ab P) / Chromodacryorrhea score (Chr) / Diarrhea score (Diarr) / Erection or ejaculation score (Er Ej) / Escape attempts score (Esc A) / Facial fasciculation or teeth chattering score (F F T C) / Global Score / Irritability score (Irrit) / Profuse salivation score (Pr Sal) / Ptosis score (Ptos) / Swallowing movements score (Sw M) / Weight loss score (W Los) / Wet dog shakes score (W D S): mean
Protocol: The abrupt cessation of chronic opiate use results in a well characterized withdrawal syndrome with symptoms that include pain sensitivity, dysphoria, irritability, restlessness, insomnia, diarrhea and hyperventilation. In the present model, the naloxone-precipitated withdrawal syndrome is measured in rodents. Animals are chronically treated with a drug, e.g. morphine or heroin. Opiate withdrawal syndrome is elicited by an acute injection of the opiate antagonist Naloxone.
The effect of mazindol on heroin withdrawal syndrome elicited by naloxone was examined in Sprague-Dawley rats using a method similar to the one used by Jiang et al. (10),
Animals were subdivided into two groups. One group received heroin two i.p. injections/day for 12 consecutive days and a single injection on the 13th day (total: 25 injections) as exposed in Table 3 group received saline instead of heroin following the same protocol.
On day 13, animals received treatments and were tested according to the following time schedule: • T=0: i.p. injection of heroin (15 mg/kg) or vehicle. • T=2.5 h: animals individually placed in a transparent Plexiglas observation boxes (40×40×40 cm). • T=3.5 h: i.p. injection of treatment (see below). • T=4 h: i.p. injection of naloxone (5 mg/kg), start of test: observation of withdrawal symptoms as indicated in Table 4. • T=5 h: end of test, animals placed back into their home cages.
Animals received the following treatments at T 3.5 h (i.e. 30 min before injection of naloxone and observation of symptoms): • 1) Animals treated with saline during the intoxication period (days 1-12) and at T0 on day 13: • Saline group (N=8): saline (0.9% NaCl). • 2) Animals treated with […] during the intoxication period (days 1-12) and at T0 on day 13: • Hero group (N=14): saline (0.9% NaCl). • Amph 1 group (N=4): D-amphetamine (1 mg/kg). • Maz 0.125 group (N=5): mazindol (0.125 mg/kg). • Maz 0.25 group (N=6): mazindol (0.25 mg/kg). • Maz 0.5 group (N=6): mazindol (0.5 mg/kg). • Maz 1 group (N=6): mazindol (1 mg/kg). • Maz 2 group (N=5): mazindol (2 mg/kg).
A weighting factor was ascribed for each sign from which a score was calculated.
Examples: • Body weight before naloxone injection=241 g; after naloxone injection=236 g: • Weight loss score=2=100×(241−236)/241 • Number of escape attempts=8: • Score for escape attempts=2 • Profuse salivation present: • Score for profuse salivation
A global withdrawal score was then calculated: • Global score=the sum of the scores

[3] = animal toxicology studies; cited from earlier work
[4] = Maz 0.125: heroin-treated rats, mazindol 0.125 mg/kg i.p. 30 min before naloxone 5 mg/kg
[5] = Maz 0.25: heroin-treated rats, mazindol 0.25 mg/kg i.p. 30 min before naloxone 5 mg/kg
[6] = Maz 0.5: heroin-treated rats, mazindol 0.5 mg/kg i.p. 30 min before naloxone 5 mg/kg
[7] = Maz 1: heroin-treated rats, mazindol 1 mg/kg i.p. 30 min before naloxone 5 mg/kg
[8] = Maz 2: heroin-treated rats, mazindol 2 mg/kg i.p. 30 min before naloxone 5 mg/kg

T1 sequence (P35367 whole entry): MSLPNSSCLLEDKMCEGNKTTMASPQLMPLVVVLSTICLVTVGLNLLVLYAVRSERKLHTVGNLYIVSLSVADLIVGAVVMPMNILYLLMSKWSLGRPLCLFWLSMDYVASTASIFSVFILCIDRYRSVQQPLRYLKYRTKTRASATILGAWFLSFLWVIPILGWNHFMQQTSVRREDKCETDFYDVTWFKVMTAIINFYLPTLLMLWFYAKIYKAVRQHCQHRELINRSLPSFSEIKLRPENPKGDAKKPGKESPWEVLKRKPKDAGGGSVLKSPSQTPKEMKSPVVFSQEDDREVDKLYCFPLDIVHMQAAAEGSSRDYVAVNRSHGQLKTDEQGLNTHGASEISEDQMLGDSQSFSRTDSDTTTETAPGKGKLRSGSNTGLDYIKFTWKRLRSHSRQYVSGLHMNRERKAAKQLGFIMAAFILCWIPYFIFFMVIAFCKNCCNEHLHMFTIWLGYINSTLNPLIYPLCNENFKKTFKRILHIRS

With `OC1(c2ccc(Cl)cc2)c2ccccc2C2=NCCN21` (stereo not shown) [Mazindol, 5-(4-chlorophenyl)-2,5-dihydro-3 H-imadazo[2,1-a]isoindol-5-ol] the inhibition at 10 µM [1] was 75.3%, the “Abdominal constrictions score (Abd C)” value [2, 4] was 2.8 and the “Abnormal posture score (Ab P)” value [2, 4] was 0.0. The “Chromodacryorrhea score (Chr)” value [2, 4] was 2.0, the “Diarrhea score (Diarr)” value [2, 4] was 0.8 and the “Erection or ejaculation score (Er Ej)” value [2, 4] was 0.0. The “Escape attempts score (Esc A)” value [2, 4] was 1.0, the “Facial fasciculation or teeth chattering score (F F T C)” value [2, 4] was 1.6 and the “Global Score” value [2, 4] was 13.2. The “Irritability score (Irrit)” value [2, 4] was 0.0, the “Profuse salivation score (Pr Sal)” value [2, 4] was 0.0 and the “Ptosis score (Ptos)” value [2, 4] was 0.0. The “Swallowing movements score (Sw M)” value [2, 4] was 1.2, the “Weight loss score (W Los)” value [2, 4] was 1.0 and the “Wet dog shakes score (W D S)” value [2, 4] was 2.8. For the same compound, the “Abdominal constrictions score (Abd C)” value [2, 5] was 0.0, the “Abnormal posture score (Ab P)” value [2, 5] was 0.0 and the “Chromodacryorrhea score (Chr)” value [2, 5] was 0.8. The “Diarrhea score (Diarr)” value [2, 5] was 1.0, the “Erection or ejaculation score (Er Ej)” value [2, 5] was 0.0 and the “Escape attempts score (Esc A)” value [2, 5] was 0.7. For the same compound, the “Facial fasciculation or teeth chattering score (F F T C)” value [2, 5] was 2.0, the “Global Score” value [2, 5] was 8.3 and the “Irritability score (Irrit)” value [2, 5] was 0.0. The “Profuse salivation score (Pr Sal)” value [2, 5] was 0.0, the “Ptosis score (Ptos)” value [2, 5] was 0.0 and the “Swallowing movements score (Sw M)” value [2, 5] was 1.0. For the same compound, the “Weight loss score (W Los)” value [2, 5] was 1.2, the “Wet dog shakes score (W D S)” value [2, 5] was 1.7 and the “Abdominal constrictions score (Abd C)” value [2, 6] was 0.0. For the same compound, the “Abnormal posture score (Ab P)” value [2, 6] was 0.0, the “Chromodacryorrhea score (Chr)” value [2, 6] was 0.0 and the “Diarrhea score (Diarr)” value [2, 6] was 1.0. The “Erection or ejaculation score (Er Ej)” value [2, 6] was 0.0, the “Escape attempts score (Esc A)” value [2, 6] was 1.7 and the “Facial fasciculation or teeth chattering score (F F T C)” value [2, 6] was 2.0. For the same compound, the “Global Score” value [2, 6] was 9.7, the “Irritability score (Irrit)” value [2, 6] was 0.0 and the “Profuse salivation score (Pr Sal)” value [2, 6] was 0.0. For the same compound, the “Ptosis score (Ptos)” value [2, 6] was 0.0, the “Swallowing movements score (Sw M)” value [2, 6] was 0.3 and the “Weight loss score (W Los)” value [2, 6] was 1.7. The “Wet dog shakes score (W D S)” value [2, 6] was 3.0, the “Abdominal constrictions score (Abd C)” value [2, 7] was 0.0 and the “Abnormal posture score (Ab P)” value [2, 7] was 0.0. For the same compound, the “Chromodacryorrhea score (Chr)” value [2, 7] was 1.7, the “Diarrhea score (Diarr)” value [2, 7] was 1.7 and the “Erection or ejaculation score (Er Ej)” value [2, 7] was 0.5. For the same compound, the “Escape attempts score (Esc A)” value [2, 7] was 2.5, the “Facial fasciculation or teeth chattering score (F F T C)” value [2, 7] was 2.0 and the “Global Score” value [2, 7] was 14.0. For the same compound, the “Irritability score (Irrit)” value [2, 7] was 0.0, the “Profuse salivation score (Pr Sal)” value [2, 7] was 1.2 and the “Ptosis score (Ptos)” value [2, 7] was 0.0. For the same compound, the “Swallowing movements score (Sw M)” value [2, 7] was 0.3, the “Weight loss score (W Los)” value [2, 7] was 3.2 and the “Wet dog shakes score (W D S)” value [2, 7] was 1.0. The “Abdominal constrictions score (Abd C)” value [2, 8] was 0.0, the “Abnormal posture score (Ab P)” value [2, 8] was 0.6 and the “Chromodacryorrhea score (Chr)” value [2, 8] was 1.0. The “Diarrhea score (Diarr)” value [2, 8] was 2.0, the “Erection or ejaculation score (Er Ej)” value [2, 8] was 0.0 and the “Escape attempts score (Esc A)” value [2, 8] was 1.6. The “Facial fasciculation or teeth chattering score (F F T C)” value [2, 8] was 0.4, the “Global Score” value [2, 8] was 10.4 and the “Irritability score (Irrit)” value [2, 8] was 0.0. The “Profuse salivation score (Pr Sal)” value [2, 8] was 1.4, the “Ptosis score (Ptos)” value [2, 8] was 0.0 and the “Swallowing movements score (Sw M)” value [2, 8] was 0.0. The “Weight loss score (W Los)” value [2, 8] was 3.0, the “Wet dog shakes score (W D S)” value [2, 8] was 0.4 and the “effect on the score for escape attempt” value ([2]; mazindol 2 mg/kg) was “increased”. The “effect on the scores for weight loss and diarrhea” value ([2]; mazindol 0.125-2 mg/kg) was “Did not significantly reduce”, the “reduction of the global score (FIG. 4)” value ([2]; mazindol 0.125-2 mg/kg) was “significant at all doses except 0.125 mg/kg” and the “reduction of the score for facial fasciculation or teeth chattering (FIG. 6)” value ([2]; mazindol 0.125-2 mg/kg) was “significant at 2 mg/kg”. For the same compound, the “reduction of the score for profuse salivation (FIG. 6)” value ([2]; mazindol 0.125-2 mg/kg) was “significant at all doses except 2 mg/kg”, the “reduction of the score for wet dog shake (FIG. 5)” value ([2]; mazindol 0.125-2 mg/kg) was “significant effect at 1 and 2 mg/kg” and the “effect on naloxone precipitated withdrawal symptoms of heroin” value ([2]; mazindol, significant at 0.25, 0.5, 1 and 2 mg/kg, but not at 0.125 mg/kg) was “decreased the naloxone precipitated withdrawal symptoms of heroin”. The carcinogenic effect [3] was “no carcinogenic effect”, the mutagenic effect [3] was “no mutagenic effect” and the toxic potential [3] was “very low”. For the same compound, the “toxicology effect in reproduction” value [3] was “no toxicology effect in reproduction”.

— US11596622B2, “Mazindol treatment for heroin dependence and substance use disorder” (NLS Pharmaceutics AG, priority 2017, dated 2023)
